# In patent US20260007720A1, “TISSUE REGENERATIVE MULTI-DRUG COCKTAIL AND APPARATUS FOR DELIVERY THEREOF” (priority 2022, published 2026):
# System: amputated P2 bone
# Test: Multiple treatments targeting chondrogenesis after P2 amputation
# Format: in vivo, adult CD-1 mice
# Settings: 98 days after amputation
# Method: Amputation Surgery and Device Attachment and Removal—All experiments were performed under the approval of Tuft's IACUC. All animals were housed in 12-hour light and dark cycles and fed using the recommended feed. Female CD-1 (Charles River Laboratories, Wilmington, MA) and FVB/NJ mice (Jackson Laboratories, Bar Harbor, ME) from 8 to 10 weeks of age were used in the study. Animals were anesthetized with isoflurane administered at 2 to 5% air composition. For single treatment (FIG. 20A), P2 amputation in hindlimb digit 3 was made using a scalpel under a dissection microscope. Immediately after P2 amputation, the dragonskin insert containing silk hydrogel with or without bioactive molecules was then attached to the amputated digit using Skin Tite™ Bioadhesive (Smooth-On, PA). Prior to hydrogel loading, all materials and tools used in the experiment (e.g. surgical tools and device components) were autoclaved to ensure sterility. Devices were attached for various time periods and the amputation digits were then allowed to heal after device removal. For the approach to target active chondrogenesis (FIG. 20B), hindlimb digit 3 was amputated at P2 level and allowed to heal conservatively for 7 to 9 days. […]
substance,measurement,value
insulin-like growth factor-1 [IGF-1],P2 bone elongation,promote P2 bone elongation
